Laboratory results taken from publication PMC11369081, “Molecular mechanism of prolactin-releasing peptide recognition and signaling via its G protein-coupled receptor” (Cell Discovery, 2024).
Peptide text beside a SMILES is read from it.

How the values were obtained:
Type in all cases: cell-based
[1] = molecular target: T1, PrRPR L229A (Homo sapiens, UniProt P49683, L229A); experiment: BRET2 Gi dissociation, L229A; conditions: L229A (5.42), Gi-coupling, AD293 cells; mean ± S.E.M., n = 3; P <0.0001 vs WT; read-out: BRET2 pEC50 (converted)
T1 construct: Flag; expressed in transfected cells; host or cells: AD293 cells
Description: (§1) AD293 cells (Agilent) were propagated in Dulbecco’s Modified Eagle Medium (DMEM, Thermo Fisher Scientific), enriched with 10% fetal bovine serum (FBS, Thermo Fisher Scientific), and maintained at 37 °C in a 5% CO2 environment. Cells were then seeded in 6-well dishes at a density of 130,000–150,000 cells per mL and allowed to incubate overnight. On the next day, cells were transfected with plasmids at a 1:1:1:1 ratio for receptor:Gα-RLuc8:Gβ:Gγ-GFP2[52]. PEI MAX 40 K (BIOHUB) was utilized to form complex with the plasmids at a ratio of 3 µL PEI per µg of plasmids, in OptiMEM (Gibco-Thermo Fisher Scientific) at a concentration of 10 ng plasmids per µL OptiMEM. After 24 h of incubation, the culture was harvested by centrifugation with PBS. The cell suspension was then allocated into a white 384-well plate at a volume of 30 µL per well, followed by the addition of 10 µL of freshly prepared 50 µM coelenterazine 400a (Yeasen). Following a 15-min equilibration period, cells were treated with 10 µL of ligand for an additional 5 min. Plates were subsequently read in a BioTek Synergy H1 microplate reader (BioTek) equipped with 395 nm (RLuc8-coelenterazine 400a) and 510 nm (GFP2) emission filters. BRET2 ratios were calculated as the ratio of the GFP2 emission to RLuc8 emission. Data were normalized to the baseline response of the ligand. […]

[2] = molecular target: T2, PrRPR F313A (Homo sapiens, UniProt P49683, F313A); experiment: BRET2 Gq dissociation, F313A; conditions: F313A (7.31), Gq-coupling, AD293 cells; mean ± S.E.M., n = 3; P 0.0012 vs WT; read-out: BRET2 pEC50 (converted)
T2 construct: Flag; expressed in transfected cells; host or cells: AD293 cells
Description: as §1, with “Following a 15-min equilibration period, cells were treated with 10 µL of ligand for an additional 5 min.” left out, “emission.” for “emission. Data were normalized to the baseline response of the ligand.”
(§2) Supplementary Fig. S4 | Effects of mutations in the ligand-binding pocket and G protein intereface of Gq coupled PrRPR by BRET2 assay. […] BRET2 assay signals were measured after stimulation with PrRP20. […]

[3] = molecular target: T3, PrRPR D302A (Homo sapiens, UniProt P49683, D302A); experiment: BRET2 Gq dissociation, D302A; conditions: D302A (6.59), Gq-coupling, AD293 cells; mean ± S.E.M., n = 3; P <0.0001 vs WT; read-out: BRET2 pEC50 (converted)
T3 construct: Flag; expressed in transfected cells; host or cells: AD293 cells
Description: as §1, with “Following a 15-min equilibration period, cells were treated with 10 µL of ligand for an additional 5 min.” left out, “emission.” for “emission. Data were normalized to the baseline response of the ligand.”
as §2

[4] = molecular target: T4, PrRPR Q141A (Homo sapiens, UniProt P49683, Q141A); experiment: BRET2 Gq dissociation, Q141A; conditions: Q141A (3.32), Gq-coupling, AD293 cells; mean ± S.E.M., n = 3; P 0.0059 vs WT; read-out: BRET2 pEC50 (converted)
T4 construct: expressed in transfected cells; host or cells: AD293 cells
Description: as §1, with “Following a 15-min equilibration period, cells were treated with 10 µL of ligand for an additional 5 min.” left out, “emission.” for “emission. Data were normalized to the baseline response of the ligand.”
as §2

[5] = molecular target: T3, PrRPR D302A; experiment: BRET2 Gi dissociation, D302A; conditions: D302A (6.59), Gi-coupling, AD293 cells; mean ± S.E.M., n = 3; P <0.0001 vs WT; read-out: BRET2 pEC50 (converted)
Description: as §1

[6] = molecular target: T5, PrRPR E213A (Homo sapiens, UniProt P49683, E213A); experiment: BRET2 Gi dissociation, E213A; conditions: E213A (45.52), Gi-coupling, AD293 cells; mean ± S.E.M., n = 3; P <0.0001 vs WT; read-out: BRET2 pEC50 (converted)
T5 construct: expressed in transfected cells; host or cells: AD293 cells
Description: as §1

[7] = molecular target: T6, PrRPR WT (Homo sapiens, UniProt P49683); experiment: BRET2 Gi dissociation, WT; conditions: Gi-coupling, AD293 cells
T6 construct: expressed in transfected cells; host or cells: AD293 cells
T6 sequence (P49683 1-370): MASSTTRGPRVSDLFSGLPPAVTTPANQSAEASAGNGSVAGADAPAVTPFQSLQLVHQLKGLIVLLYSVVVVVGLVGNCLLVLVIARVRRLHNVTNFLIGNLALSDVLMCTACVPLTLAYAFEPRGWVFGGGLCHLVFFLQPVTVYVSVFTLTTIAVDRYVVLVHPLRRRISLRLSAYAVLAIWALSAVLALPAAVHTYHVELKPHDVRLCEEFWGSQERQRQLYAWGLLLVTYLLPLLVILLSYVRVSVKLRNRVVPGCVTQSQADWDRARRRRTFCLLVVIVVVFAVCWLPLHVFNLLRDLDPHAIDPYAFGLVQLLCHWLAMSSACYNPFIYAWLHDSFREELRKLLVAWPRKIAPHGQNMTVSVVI
Description: as §1

[8] = molecular target: T7, PrRPR C113A (Homo sapiens, UniProt P49683, C113A); experiment: BRET2 Gq dissociation, C113A; conditions: C113A (2.57), Gq-coupling, AD293 cells; mean ± S.E.M., n = 3; P 0.0007 vs WT; read-out: BRET2 pEC50 (converted)
T7 construct: expressed in transfected cells; host or cells: AD293 cells
Description: as §1, with “Following a 15-min equilibration period, cells were treated with 10 µL of ligand for an additional 5 min.” left out, “emission.” for “emission. Data were normalized to the baseline response of the ligand.”
as §2

[9] = molecular target: T8, PrRPR T233A (Homo sapiens, UniProt P49683, T233A); experiment: BRET2 Gq dissociation, T233A; conditions: T233A (5.46), Gq-coupling, AD293 cells; mean ± S.E.M., n = 3; P <0.0001 vs WT; read-out: BRET2 pEC50 (converted)
T8 construct: Flag; expressed in transfected cells; host or cells: AD293 cells
Description: as §1, with “Following a 15-min equilibration period, cells were treated with 10 µL of ligand for an additional 5 min.” left out, “emission.” for “emission. Data were normalized to the baseline response of the ligand.”
as §2

[10] = molecular target: T9, PrRPR N298A (Homo sapiens, UniProt P49683, N298A); experiment: BRET2 Gi dissociation, N298A; conditions: N298A (6.55), Gi-coupling, AD293 cells; mean ± S.E.M., n = 3; P 0.0022 vs WT; read-out: BRET2 pEC50 (converted)
T9 construct: Flag; expressed in transfected cells; host or cells: AD293 cells
Description: as §1

T3 sequence (P49683 whole entry D302A): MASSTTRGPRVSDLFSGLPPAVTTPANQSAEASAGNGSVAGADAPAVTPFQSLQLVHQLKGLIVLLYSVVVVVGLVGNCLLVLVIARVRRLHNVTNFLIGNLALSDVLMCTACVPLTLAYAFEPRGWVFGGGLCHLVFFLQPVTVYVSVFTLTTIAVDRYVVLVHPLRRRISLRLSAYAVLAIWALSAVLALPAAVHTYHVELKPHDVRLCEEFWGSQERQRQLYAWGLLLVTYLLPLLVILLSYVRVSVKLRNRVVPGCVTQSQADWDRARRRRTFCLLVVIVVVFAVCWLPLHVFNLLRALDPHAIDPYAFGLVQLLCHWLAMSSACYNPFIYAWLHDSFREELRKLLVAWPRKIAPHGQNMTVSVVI
T7 sequence (P49683 whole entry C113A): as the sequence (P49683 whole entry D302A) above, with C113A, A302D counted along it
T4 sequence (P49683 whole entry Q141A): as the sequence (P49683 whole entry D302A) above, with Q141A, A302D counted along it
T1 sequence (P49683 whole entry L229A): as the sequence (P49683 whole entry D302A) above, with L229A, A302D counted along it
T5 sequence (P49683 whole entry E213A): as the sequence (P49683 whole entry D302A) above, with E213A, A302D counted along it
T2 sequence (P49683 whole entry F313A): as the sequence (P49683 whole entry D302A) above, with A302D, F313A counted along it
T8 sequence (P49683 whole entry T233A): as the sequence (P49683 whole entry D302A) above, with T233A, A302D counted along it
T9 sequence (P49683 whole entry N298A): as the sequence (P49683 whole entry D302A) above, with N298A, A302D counted along it

CC[C@H](C)[C@H](NC(=O)CNC(=O)[C@H](CCCNC(=N)N)NC(=O)[C@H](CO)NC(=O)[C@H](C)NC(=O)[C@H](Cc1ccc(O)cc1)NC(=O)[C@H](Cc1c[nH]c2ccccc12)NC(=O)[C@H](C)NC(=O)[C@@H]1CCCN1C(=O)[C@H](CC(N)=O)NC(=O)[C@@H](NC(=O)[C@H](CC(=O)O)NC(=O)[C@@H]1CCCN1C(=O)[C@@H](N)[C@@H](C)O)[C@@H](C)CC)C(=O)N[C@@H](CCCNC(=N)N)C(=O)N1CCC[C@H]1C(=O)N[C@H](C(=O)NCC(=O)N[C@@H](CCCNC(=N)N)C(=O)N[C@@H](Cc1ccccc1)C(N)=O)C(C)C [PrRP20] (H-TPDINPAWYASRGIRPVGRF-NH2)
EC50 [1]: 85.1 nM | EC50 [2]: 3.39 nM | EC50 [3]: 151 nM | EC50 [4]: 3.02 nM | EC50 [5]: 1120 nM | EC50 [6]: 1380 nM | BRET2 span ([7]; WT (reference for normalisation), n = 3): 100.00 %WT | EC50 ([7]; WT, 5 min ligand, mean ± S.E.M., n = 3 (triplicates), read-out: BRET2 pEC50 (converted)): 1.86 nM | EC50 [8]: 3.39 nM | EC50 [9]: 5.75 nM | EC50 [10]: 6.31 nM
